From patent US8586555B2, “Immunomodulatory compositions, formulations, and methods for use thereof” (Dynavax Technologies Corporation, priority 2001, dated 2013)

Tests used:
Format in all cases: cell-based
[1] = test system: human peripheral blood mononuclear cells (hPBMC); test: human PBMC assay, Example 5 (96 well plates, premixed); conditions: for IFN-α Mean / IFN-γ Mean: mean of donors 28051-28054
Method: (§1) Hexameric oligonucleotides were tested for immunomodulatory activity alone and complexed with lactic acid/glycolic acid copolymer microcarrier beads using a human peripheral blood mononuclear cells (hPBMC) assay. Peripheral blood was collected from healthy volunteers by venipuncture using heparinized syringes. Blood was layered onto a FICOLL® (Amersham Pharmacia Biotech) cushion and centrifuged. hPBMCs, located at the FICOLL® interface, were collected, then washed twice with cold phosphate buffered saline (PBS). The cells were resuspended and cultured in 48 well plates at 2×10^6 cells/mL at 37° C. in RPMI 1640 with 10% heat-inactivated human AB serum plus 50 units/mL penicillin, 50 μg/mL streptomycin, 300 μg/mL glutamine, 1 mM sodium pyruvate, and 1×MEM non-essential amino acids (NEAA).
(§2) Oligonucleotides were tested as single agents, or in combination with PLGA microspheres (unmodified or cationic). All oligonucleotides contained 100% phosphorothioate linkages and were tested at 20 μg/ml. The PLGA microcarriers were used at 250 μg/ml. When oligos were tested with PLGA microcarriers, the oligo and the microcarriers were added at the same time to the culture. The cells were cultured in the in the presence of test samples for 24 hours, then cell-free medium was collected from each well and assayed for IFN-γ and IFN-α concentration. Two different oligonucleotides were used as controls: a first oligonucleotide known to have immunostimulatory activity (a 22mer oligonucleotide containing an ISS (“ISS+,” 5′-[…]-3′(SEQ ID NO:2)) and a second oligonucleotide of similar sequence but lacking immunostimulatory activity (“ISS−,” 5′-[…]-3′ (SEQ ID NO:1)). SAC (PANSORBIN® CalBiochem, 1/5000 dilution) and a untreated culture were used as additional positive and negative controls, respectively. SAC contains Staph. aureus (Cowan I) cell material. All samples were assayed in duplicate.
(§3) IFN-γ and IFN-α were assayed using CYTOSCREEN™ ELISA kits from BioSource International, Inc., according to the manufacturer's instructions.
The immunomodulatory activity of the oligonucleotides used in Examples 3 and 4 was confirmed with the human PBMC assay using PBMCs from an additional four donors (donors 28051-28054). Oligonucleotides were tested alone or in combination with cationic PLGA as described in Example 3, except that 96 well plates were used instead of 48 well plates and the oligonucleotides were premixed with the cationic microspheres at room temperature for 15 minutes before they were added to the culture, rather than being added simultaneously to the culture.

[2] = test system: human peripheral blood mononuclear cells (hPBMC); test: human PBMC assay, Example 3 (oligo and PLGA added at the same time, 48 well plates); conditions: for IFN-α / IFN-γ: oligo 20 μg/ml, PLGA 250 μg/ml, 24 hours
Method: as §1, §2, §3

[3] = test system: human peripheral blood mononuclear cells (hPBMC); test: human PBMC assay, Example 4 (oligos and PLGA premixed 15 minutes); conditions: for IFN-α Mean / IFN-γ Mean: mean of donors 28044, 28045
Method: as §1, §2, §3
Additional hexameric and pentameric oligonucleotides were tested for immunomodulatory activity in the PBMC assay. Oligonucleotides 6-6 (5′-TCGAGA-3′), 6-8 (5′-GTCGAC-3′), 6-9 (5′-GTCGTT-3′), 6-2 (5′-TCGTTT-3′), 6-3 (5′-TTCGTT-3′), 6-4 (5′-TTTCGT-3′), 5-1 (5′-TCGTC-3′), and 5-2 (5′-TCGTT-3′) were tested alone or in combination with cationic PLGA as described in Example 3 except that the oligos and PLGA were premixed for 15 minutes room temperature before addition to the cultures. The test articles were assayed using PBMC isolated from donors 28044 and 28045.

[4] = delivered as IMO/MC complexes (cPLGA)

Row | Substance | immunomodulatory activity [1, 4] | IFN-α ([1]; donor 28051) | IFN-γ ([1]; donor 28051) | IFN-α ([1]; donor 28052) | IFN-γ ([1]; donor 28052) | IFN-α ([1]; donor 28053) | IFN-γ ([1]; donor 28053) | IFN-α ([1]; donor 28054) | IFN-γ ([1]; donor 28054) | IFN-α Mean [1] | IFN-γ Mean [1] | immunomodulatory activity ([1]; delivered alone) | IFN-α ([3]; donor 28044) | IFN-γ ([3]; donor 28044) | IFN-α ([3]; donor 28045) | IFN-γ ([3]; donor 28045) | IFN-α Mean [3] | IFN-γ Mean [3] | further results
1 | 5′-AACGTT-3′ [Oligonucleotide 6-16] | variable activity | 2 pg/mL | 1 pg/mL | 1 pg/mL | 2 pg/mL | 1 pg/mL | 2 pg/mL | 2 pg/mL | 8 pg/mL | 2 pg/mL | 3 pg/mL | – | – | – | – | – | – | – | IFN-α ([2]; donor 28033): 3 pg/mL; IFN-γ ([2]; donor 28033): 0 pg/mL; IFN-α ([2]; donor 28034): 48 pg/mL; IFN-γ ([2]; donor 28034): 3 pg/mL; IFN-α induction ([2]; in combination with cationic PLGA): induce IFN-α in one of the two donors; IFN-α Mean ([2]; mean of donors 28033, 28034): 26 pg/mL; IFN-γ Mean ([2]; mean of donors 28033, 28034): 2 pg/mL
2 | 5′-GTCGAC-3′ [Oligonucleotide 6-8] | highly active | 1 pg/mL | 0 pg/mL | 0 pg/mL | 0 pg/mL | 6 pg/mL | 1 pg/mL | 0 pg/mL | 2 pg/mL | 2 pg/mL | 1 pg/mL | inactive | 0 pg/mL | 6 pg/mL | 0 pg/mL | 0 pg/mL | 0 pg/mL | 3 pg/mL | –
3 | 5′-GTCGTT-3′ [Oligonucleotide 6-9] | highly active | 0 pg/mL | 1 pg/mL | 0 pg/mL | 0 pg/mL | 6 pg/mL | 2 pg/mL | 0 pg/mL | 1 pg/mL | 2 pg/mL | 1 pg/mL | inactive | 0 pg/mL | 6 pg/mL | 0 pg/mL | 0 pg/mL | 0 pg/mL | 3 pg/mL | –
4 | 5′-TCGAGA-3′ [Oligonucleotide 6-6] | highly active | 1 pg/mL | 2 pg/mL | 4 pg/mL | 2 pg/mL | 0 pg/mL | 1 pg/mL | 10 pg/mL | 2 pg/mL | 4 pg/mL | 2 pg/mL | inactive | 0 pg/mL | 0 pg/mL | 0 pg/mL | 0 pg/mL | 0 pg/mL | 0 pg/mL | –
